Source: patent US6770664B2, “Bicyclic heterocyclic substituted phenyl oxazolidinone antibacterials, and related compositions and methods” (priority 1999, dated 2004)

| melting point | Structure (SMILES) |
| --- | --- |
| 204 to 208 °C | CCCn1ncc2c1CN(c1ccc(N3C[C@H](CNC(C)=O)OC3=O)cc1F)C2 [Compound 45] |
| 240 to 242 °C | CC(=O)NC[C@H]1CN(c2ccc(N3C(=O)c4ccccc4C3=O)c(F)c2)C(=O)O1 [Compound 47] |
| 155 to 157 °C | CC(=O)NC[C@H]1CN(c2ccc(N3Cc4cnn(C(C)(C)C)c4C3)c(F)c2)C(=O)O1 [Compound 52] |
| 244 to 247 °C (dec.) | CC(=O)NC[C@H]1CN(c2ccc(N3Cc4c[nH]nc4C3)c(F)c2)C(=O)O1 [Compound 44] |
| 188 to 191 °C | CC(=O)NC[C@H]1CN(c2ccc(N3Cc4cn(C[C@H](O)CO)nc4C3)c(F)c2)C(=O)O1 [Compound 66] |
| 184 to 188 °C | CC(=O)NC[C@H]1CN(c2ccc(N3Cc4cn(C[C@@H](O)CO)nc4C3)c(F)c2)C(=O)O1 [Compound 69] |
| 207 to 209 °C | CC(=O)NC[C@H]1CN(c2ccc(N3Cc4ncccc4C3=O)c(F)c2)C(=O)O1 [Compound 49] |
| 175 to 180 °C (dec.) | [N-]=[N+]=NC[C@H]1CN(c2ccc(N3Cc4cccnc4C3)c(F)c2)C(=O)O1 [Example 7] |
| 234 to 236 °C | CC(=O)NC[C@H]1CN(c2ccc(N3Cc4cnn(CC5CC5)c4C3)c(F)c2)C(=O)O1 (single isomer, unassigned) [Compound 73] |
| 259 to 261 °C (dec.) | CC(=O)NC[C@H]1CN(c2ccc(N3Cc4cn(-c5ccccn5)nc4C3)c(F)c2)C(=O)O1 [Compound 51] |
| 171 to 173 °C | CC(=O)NC[C@H]1CN(c2ccc(N3Cc4cn(CCCO)nc4C3)c(F)c2)C(=O)O1 [Compound 68] |
| 230 to 232 °C | CC(=O)NC[C@H]1CN(c2ccc(N3Cc4cccnc4C3=O)c(F)c2)C(=O)O1 [Compound 48] |
| 170 to 172 °C | CC(=O)NC[C@H]1CN(c2ccc(N3Cc4cn(CC(F)(F)F)nc4C3)c(F)c2)C(=O)O1 [Compound 70] |
| 246 to 249 °C | CNC(=S)n1cc2c(n1)CN(c1ccc(N3C[C@H](CNC(C)=O)OC3=O)cc1F)C2 [Compound 87] |
| 211 to 213 °C | CC(=O)NC[C@H]1CN(c2ccc(N3Cc4cnn(C)c4C3)c(F)c2)C(=O)O1 [Compound 50] |
| 232 to 242 °C (dec.) | CC(=O)NC[C@H]1CN(c2ccc(N3Cc4cn(CCO)nc4C3)c(F)c2)C(=O)O1 [Compound 65, N-[[(5S)-3-[4-[2,6-dihydro-2-(2-hydroxyethyl)pyrrolo[3,4-c]pyrazol-5(4H)-yl]-3-fluorophenyl]-2-oxo-5-oxazolidinyl]methyl]acetamide] |
| 211 to 214 °C | CC(=O)NC[C@H]1CN(c2ccc(N3Cc4ccccc4C3=O)c(F)c2)C(=O)O1 [Compound 46, N-[[(5S)-3-[4-(1,3-dihydro-1-oxo-2H-isoindol-2-yl)-3-fluorophenyl]-2-oxo-5-oxazolidinyl]methyl]acetamide] |
| 163 to 165 °C | CC(=O)NC[C@H]1CN(c2ccc(N3Cc4cnn(CCO)c4C3)c(F)c2)C(=O)O1 [Compound 53] |

More lines, now with the values behind:

| Structure (SMILES) | melting point |
| --- | --- |
| CC(=O)NC[C@H]1CN(c2ccc(N3Cc4cnc(-c5ccccn5)nc4C3)c(F)c2)C(=O)O1 [Compound 42] | 216 to 220 °C |
| O=C1O[C@@H](COc2ccon2)CN1c1ccc(-n2cc3cccnc3c2)c(F)c1 [Compound 8] | 133 to 135 °C |
| CC(=O)NC[C@H]1CN(c2ccc(N3Cc4cnc(C)nc4C3)c(F)c2)C(=O)O1 [Compound 35] | 234 °C (dec.) |
| CS/C(=N\C#N)NC[C@H]1CN(c2ccc(N3Cc4cccnc4C3)c(F)c2)C(=O)O1 [Compound 22] | 204 to 207 °C |
| O=C1O[C@@H](CO)CN1c1ccc(N2Cc3cccnc3C2)c(F)c1 [Compound 2, (5R)-3-[4-(5,7-Dihydro-6H-pyrrolo[3,4-b]pyridin-6-yl)-3-fluorophenyl]-5-(hydroxymethyl)-2-oxazolidinone] | 208 to 212 °C (dec.) |
| N/C(=N\[N+](=O)[O-])NC[C@H]1CN(c2ccc(N3Cc4cccnc4C3)c(F)c2)C(=O)O1 [Compound 24] | 202 to 206 °C |
| O=C1O[C@@H](COc2cnccn2)CN1c1ccc(N2Cc3cccnc3C2)c(F)c1 [Compound 9] | 225 to 230 °C |
| CC(=O)NC[C@H]1CN(c2ccc(-n3cc4cccnc4c3)c(F)c2)C(=O)O1 [Compound 4] | 220 to 225 °C (dec.) |
| O=C1O[C@@H](COc2cnsn2)CN1c1ccc(N2Cc3cccnc3C2)c(F)c1 [Compound 11] | 185 to 187 °C |
| CC(=O)NC[C@H]1CN(c2ccc(-n3cc4ccncc4c3)c(F)c2)C(=O)O1 [Compound 28] | 219 to 225 °C (dec.) |
| CC(=O)NC[C@H]1CN(c2ccc(-n3cc4cc[n+]([O-])cc4c3)c(F)c2)C(=O)O1 [Compound 27, N-[[(5S)-3-[3-Fluoro-4-(5-oxido-2H-pyrrolo[3,4-c]pyridin-2-yl)phenyl]-2-oxo-5-oxazolidinyl]methyl]acetamide] | 219 to 225 °C (dec.) |
| CC(=O)NC[C@H]1CN(c2ccc(N3Cc4cnc(-c5cnccn5)nc4C3)c(F)c2)C(=O)O1 [Compound 38] | 212 to 214 °C |
| CC(=O)NC[C@H]1CN(c2ccc(N3Cc4cnc(-c5ccncc5)nc4C3)c(F)c2)C(=O)O1 [Compound 41] | 245 to 250 °C (dec.) |
| CC(=O)NC[C@H]1CN(c2ccc(-n3cc4cncnc4c3)c(F)c2)C(=O)O1 [Compound 37] | 164 to 166 °C |
| CC(=O)NC[C@H]1CN(c2ccc(N3Cc4cnc(-c5cccnc5)nc4C3)c(F)c2)C(=O)O1 [Compound 43] | 265 to 270 °C (dec.) |
| CCC(=O)NC[C@H]1CN(c2ccc(N3Cc4cccnc4C3)c(F)c2)C(=O)O1 [Compound 13] | 110 to 112 °C |
| CC(=O)NC[C@@H]1CN(c2ccc(-n3cc4cccnc4c3)c(F)c2)C(=O)O1 [Compound 6] | 181 to 185 °C (dec.) |
| CS(=O)(=O)NC[C@H]1CN(c2ccc(N3Cc4cccnc4C3)c(F)c2)C(=O)O1 [Compound 20] | 172 to 176 °C |
| O=C1O[C@@H](COc2cnsn2)CN1c1ccc(-n2cc3cccnc3c2)c(F)c1 [Compound 12] | 185 to 188 °C |
| O=C(NC[C@H]1CN(c2ccc(N3Cc4cccnc4C3)c(F)c2)C(=O)O1)C1CC1 [Compound 15] | 235 to 240 °C |
| CC(=O)NC[C@H]1CN(c2ccc(N3Cc4ccccc4C3)c(F)c2)C(=O)O1 [Compound 1, N-[[(5S)-3-[4-(1,3-Dihydro-2H-isoindol-2-yl)-3-fluorophenyl]-2-oxo-5-oxazolidinyl]methyl]acetamide] | 240 to 242 °C |
| CC(=O)NC[C@H]1CN(c2ccc(N3Cc4cncnc4C3)c(F)c2)C(=O)O1 [Compound 36] | 230 to 232 °C |
| O=C1O[C@@H](COc2ccon2)CN1c1ccc(N2Cc3cccnc3C2)c(F)c1 [Compound 7] | 182 to 185 °C |
| O=C1O[C@@H](COc2cnccn2)CN1c1ccc(-n2cc3cccnc3c2)c(F)c1 [Compound 10] | 192 to 194 °C |
